Results as given in article PMC12040169 (PLOS Biology, 2025).

Assay: in vitro
Conditions: human, hela cells

Row | Compound | viability at 28.5 h, 10 µM (% viability) [%] | further results
1 | COc1ccc([N+](=O)[O-])cc1COc1ccc2ccc(=O)oc2c1 [CBK264597] | 106 | –
2 | CC1(C)C(=O)OC(C(=O)c2ccc(Br)cc2)C(C)(C)C1=O (stereo not shown) [CBK264600] | 90.3 | –
3 | O=C(O)COc1cccc(NC(=O)c2ccccc2)c1 [CBK264602] | 88.3 | –
4 | CCOc1ccc(C(=O)C2=C(O)C(=O)N(CCN(C)C)C2c2ccc(N(C)C)cc2)c(C)c1 (stereo not shown) [CBK264603] | 110 | –
5 | CCC12CN3CC(CC)(CN(C1)C3c1ccccc1[N+](=O)[O-])C2=O (stereo not shown) [CBK264604] | 116 | –
6 | COc1cc(C2C(C(=O)c3cccs3)=C(O)C(=O)N2Cc2cccnc2)ccc1O (stereo not shown) [CBK264605] | 110 | –
7 | CC(CN1CCOCC1)OC(=O)c1ccco1 (stereo not shown) [CBK264606C] | 92.9 | –
8 | O=C(Nc1sc2c(c1C(=O)NCC1CCCO1)CCCC2)c1ccccc1[N+](=O)[O-] (stereo not shown) [CBK264608] | 102 | –
9 | O=[N+]([O-])c1cccc(CN2CCC(N3CCN(Cc4ccccc4)CC3)CC2)c1 [CBK264609G] | 93.5 | –
10 | O=C(/C=C/c1cccc([N+](=O)[O-])c1)Nc1ccc(Cl)c(-c2nc3ccccc3o2)c1 [CBK264610] | 102 | –
11 | COc1cc(C(=O)ON=C(N)Cc2cccc3ccccc23)cc(OC)c1OC [CBK264611] | 95.9 | –
12 | COC(=O)c1ccccc1NC(=O)CN(c1cccc(Cl)c1Cl)S(C)(=O)=O [CBK264612] | 115 | –
13 | CCOC(=O)CN1C(=O)S/C(=C/c2cc(Cl)c(OCC(=O)O)c(Br)c2)C1=O [CBK264614] | 106 | –
14 | COc1ccc(C(=O)C2=C(O)C(=O)N(CCN3CCNCC3)C2c2ccc(Cl)c(Cl)c2)cc1 (stereo not shown) [CBK264616] | 95.1 | –
15 | O=[S+]([O-])(c1ccccc1)N1CCC(N(CCc2ccccc2)Cc2ccccc2)CC1 [CBK264617G] | 102 | –
16 | O=C(NC(=S)Nc1cccc(Cl)c1)c1cncc(Br)c1 [CBK264618] | 94.1 | –
17 | Cc1ccc(C(=O)C2=C(O)C(=O)N(Cc3cccnc3)C2c2cccc(Oc3ccccc3)c2)o1 (stereo not shown) [CBK264619] | 96.3 | –
18 | O=C(CCCN1C(=O)/C(=C/c2ccc3c(c2)OCO3)SC1=S)Nc1ccc([N+](=O)[O-])cc1 [CBK264623] | 105 | –
19 | COCCCNC(=O)COc1cc(C)ccc1C [CBK264625] | 88.4 | –
20 | Cc1cccc(-n2nc3c4nonc4ccc3[n+]2[O-])c1C [CBK264626] | 93.6 | –
21 | COc1ccc(CN2CCC(N3CCc4ccccc4C3)CC2)cc1OCc1ccccc1 [CBK264629G] | 91.4 | –

Row | Compound | viability at 28.5 h, 10 µM (% viability) [%] | further results
22 | Cc1cc(=O)nc(SC(C)C(=O)O)[nH]1 (stereo not shown) [CBK264630] | 95.3 | –
23 | CCN1CCN(C2CCN(Cc3ccccc3[N+](=O)[O-])CC2)CC1 [CBK264631G] | 98.1 | –
24 | O=C(CN1C(=O)S/C(=C\c2ccc(OCc3ccccc3F)cc2)C1=O)c1ccc(Cl)cc1 [CBK264632] | 97.6 | –
25 | COc1ccc(-n2nc3ccc(NC(=O)c4sc5ccccc5c4Cl)cc3n2)cc1Cl [CBK264633] | 94.5 | –
26 | O=C(CN1C(=O)S/C(=C\c2ccc(OCc3ccccc3)cc2)C1=O)c1ccccc1 [CBK264636] | 95.1 | –
27 | O=C1/C(=C/c2ccc(OCc3cccc([N+](=O)[O-])c3)cc2)SC(=S)N1CCc1ccccc1 [CBK264641] | 92.6 | –
28 | CCOc1cc([N+](=O)[O-])cc(C=O)c1OC(C)C(=O)O (stereo not shown) [CBK264642] | 89.6 | –
29 | CC(=O)Nc1ccc(S(=O)(=O)Nc2ccc(S(=O)(=O)Nc3ccc(C)c(C)c3)cc2)cc1 [CBK264643] | 101 | –
30 | Cc1ccc(CN(CC(=O)N2CCCCC2)S(=O)(=O)c2ccc(C)cc2)cc1 [CBK264646] | 91.6 | –
31 | Cc1ccc(C2=N/C(=C/c3ccc(OS(=O)(=O)c4ccc(C)c([N+](=O)[O-])c4)cc3)C(=O)O2)cc1 [CBK264647] | 99.1 | –
32 | Nc1nnc(SCc2nc3ccccc3n2Cc2ccccc2)s1 [CBK264649] | 92.1 | –
33 | Cc1ccccc1OCC(=O)Nc1ccc(CSc2ccccc2)cc1 [CBK264651] | 93 | –
34 | CCc1cc(=O)oc2cc(OC(=O)c3ccco3)ccc12 [CBK264657] | 84.8 | –
35 | CCc1ccc(OCC(=O)Nc2cccnc2)cc1 [CBK264658] | 96.6 | –
36 | O=C(CN(Cc1ccccc1Cl)S(=O)(=O)c1ccc(Cl)cc1)NC1CCCCC1 [CBK264659] | 97.5 | –
37 | COc1ccc(C2C(C(=O)c3ccc(Cl)cc3)=C(O)C(=O)N2CCN(C)C)cc1OC (stereo not shown) [CBK264660] | 103 | –
38 | c1ccc(Oc2cccc(CN3CCC(N4CCN(c5ccccc5)CC4)CC3)c2)cc1 [CBK264662G] | 88 | –
39 | O=C(O)c1cc(-c2ccccc2)nc(Nc2nc3ccccc3s2)n1 [CBK264665] | 108 | –
40 | COc1ccc(C(=O)C2=C(O)C(=O)N(CCN3CCNCC3)C2c2ccccc2F)cc1 (stereo not shown) [CBK264666] | 99.4 | –
41 | O=C1/C(=C/c2ccc(OCc3cccc4ccccc34)cc2)SC(=S)N1Cc1cccnc1 [CBK264669] | 95.6 | –
42 | Cc1cccc(NC(=O)CN2C(=O)S/C(=C\c3cc(C)n(-c4cc(C)ccn4)c3C)C2=O)c1 [CBK264671] | 93.4 | –

Row | Compound | viability at 28.5 h, 10 µM (% viability) [%] | further results
43 | CC(Oc1ccc(Cl)cc1Cl)C(=O)O/N=C(\N)c1ccccn1 (stereo not shown) [CBK264673] | 100 | –
44 | O=C1/C(=C/c2c(NCCc3ccccc3)nc3ccccn3c2=O)SC(=S)N1Cc1ccco1 [CBK264674] | 96.4 | –
45 | Cc1ccc(S(=O)(=O)NCCSCc2ccc(Cl)c(Cl)c2)cc1[N+](=O)[O-] [CBK264675] | 99.9 | –
46 | O=C(CCC(=O)c1ccc2c(c1)OCCO2)OCC(=O)c1ccc(F)cc1 [CBK264679] | 103 | –
47 | Cc1cc(C)c(OCC(=O)Nc2cccc(-c3nc4cc(C(C)C)ccc4o3)c2)c([N+](=O)[O-])c1 [CBK264680] | 88.6 | –
48 | COc1ccc(Br)cc1CN1CCC(N2CCN(c3ccccc3OC)CC2)CC1 [CBK264681G] | 88.4 | –
49 | Cc1cccc(OCCn2c(SCCC(=O)O)nc3ccccc32)c1 [CBK264682] | 93.5 | –
50 | CCOC(=O)CN1C(=O)S/C(=C/c2ccc(OCc3ccc(Br)cc3)cc2)C1=O [CBK264686] | 99.1 | –
51 | Cc1cc(CSc2ccccc2)ccc1NC(=O)/C=C/c1cccc([N+](=O)[O-])c1 [CBK264687] | 111 | –
52 | COc1ccccc1N1CCN(C2CCN(S(=O)(=O)c3ccc(NC(C)=O)cc3)CC2)CC1 [CBK264688] | 93.7 | –
53 | NCCCC(=O)OC1N=C(c2ccccc2Cl)c2cc(Br)ccc2NC1=O (stereo not shown) [CBK264689B] | – | viability at 28.5 h, 10 µM (% viability, bulk resorufin, single well): 104%
54 | CC(O)c1cccc(NC(=O)CCC(=O)O)c1 (stereo not shown) [CBK264691] | 94.1 | –
55 | NCC(=O)Nc1ccc(Br)cc1C(=O)c1ccccc1Cl [CBK264692B] | 90.5 | –
56 | Cc1cc(C)c2oc(-c3ccc(Cl)c(NC(=O)Cc4ccc(Cl)cc4)c3)nc2c1 [CBK264695] | 97.8 | –
57 | O=C1/C(=C/c2c(NCCCn3ccnc3)nc3ccccn3c2=O)SC(=S)N1C1CCCCC1 [CBK264696] | 95.2 | –
58 | O=S(=O)(NC1CCCCC1Oc1ccccc1)c1ccc(Cl)cc1 (stereo not shown) [CBK264697] | 114 | –
59 | O=C(CN1C(=O)c2ccccc2C1=O)OCC(=O)N1c2ccccc2Sc2ccccc21 [CBK264701] | 91.8 | –
60 | O=C1/C(=C/c2ccc(OCc3ccccc3Cl)c(Cl)c2)SC(=S)N1Cc1cccnc1 [CBK264702] | 92.4 | –
61 | COc1cc(CN2CCC(N3CCCCCC3)CC2)ccc1OCc1ccccc1 [CBK264709G] | 90.6 | –
62 | OCCN1CCN(C2CCN(Cc3ccccc3Cl)CC2)CC1 [CBK264710] | 90.1 | –
63 | Nc1nonc1-c1nc2ccccc2n1CC(=O)NCc1ccccc1 [CBK264711] | 92.1 | –

Row | Compound | viability at 28.5 h, 10 µM (% viability) [%] | further results
64 | O=C(O)c1cc(-c2ccc(/C=C3\SC(=S)N(Cc4cccnc4)C3=O)o2)ccc1Cl [CBK264712] | 112 | –
65 | Cc1cc(C(=O)O)ccc1-c1ccc(/C=N/n2cnnc2)o1 [CBK264713] | 92.5 | –
66 | CN(C)S(=O)(=O)c1ccc(C(=O)C2=C(O)C(=O)N(Cc3cccnc3)C2c2ccc(F)cc2)cc1 (stereo not shown) [CBK264715] | 94 | –
67 | C=CCOc1ccc(C(=O)C2=C(O)C(=O)N(Cc3cccnc3)C2c2ccc(Cl)cc2)c(C)c1 (stereo not shown) [CBK264716] | 99.6 | –
68 | COc1ccc(C(=O)C2=C(O)C(=O)N(CCN3CCOCC3)C2c2ccc(Cl)cc2)cc1 (stereo not shown) [CBK264718] | 103 | –
69 | O=C(COc1ccc(Cl)cc1Cl)Nc1cccc(NC(=O)c2ccccc2Cl)c1 [CBK264726] | 105 | –
70 | CC(Cn1nnc2ccccc21)C(=O)O (stereo not shown) [CBK264727] | 117 | –
71 | Clc1ccc(OCc2nc3ccccc3n2CCOc2ccccc2)c(Cl)c1 [CBK264728] | 94.8 | –
72 | CN(C)CCN1C(=O)C(O)=C(C(=O)c2ccc(S(=O)(=O)N(C)C)cc2)C1c1cccnc1 (stereo not shown) [CBK264729] | 99.7 | –
73 | c1ccc(CN2CCC(N3CCC(N4CCc5ccccc5C4)CC3)CC2)cc1 [CBK264730G] | 91 | –
74 | CCOC(=O)CN1C(=O)S/C(=C/c2cc(C)n(-c3cc(C)ccn3)c2C)C1=O [CBK264731] | 95.2 | –
75 | O=C(Nc1ccc(S(=O)(=O)Nc2nccs2)cc1)C1CC(=O)N(c2ccccc2)C1 (stereo not shown) [CBK264732] | 104 | –
76 | O=C(NCCSCc1ccc(Cl)cc1Cl)c1ccc(Br)cc1 [CBK264733] | 114 | –
77 | COc1ccccc1N1CCN(C2CCN(Cc3ccc([N+](=O)[O-])cc3)CC2)CC1 [CBK264734G] | 98.8 | –
78 | O=C(O)CCc1ccc(-c2cccs2)n1NC(=O)c1ccc(Cl)cc1 [CBK264738] | 95.5 | –
79 | COc1ccc(C(=O)Oc2ccc(C(c3c(C)n[nH]c3O)c3c(C)n[nH]c3O)cc2)cc1 [CBK264740] | – | viability at 28.5 h, 10 µM: 112%
80 | Cc1ccc(N(CC(O)CNC23CC4CC(CC(C4)C2)C3)S(=O)(=O)c2ccccc2)cc1 (stereo not shown) [CBK264741] | 110 | –
81 | O=C1CC(c2ccco2)CC(=O)C1=CNCCN1CCN(C(=O)Nc2ccc(Cl)cc2)CC1 (stereo not shown) [CBK264743] | 80.2 | –
82 | Cc1cc(/C=C2/NC(=O)NC2=O)c(C)n1-c1ccc(S(N)(=O)=O)cc1 [CBK264747] | 106 | –
